Measured values reported in US9708314B2, “Heterocyclic amide compound” (NISSAN CHEMICAL INDUSTRIES, LTD., priority 2013, dated 2017).

Columns and labels:
Assay type in all cases: in vivo
Monochoria vaginalis = experiment: Test Example 2: herbicidal activity, application during weed generation in submerged conditions; conditions: Eighteenth Table; application herbicide amount 320 g/ha
Summary of the method: (§1)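 Alluvial soil in Wagner pots flooded to 4 cm water depth; seeds sown mixed, grown in greenhouse at 25–30 °C. At one- to two-leaf stage, emulsion diluted with water to the set rate (g/ha) was applied to the water surface. Effect scored 0–5 by herbicidal ratio three weeks later.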

Scirpus juncoides = experiment: as above; conditions: Eighteenth Table; application herbicide amount 320 g/ha
Summary of the method: as §1

[1] = system: directly sowed Oryza sativa; experiment: Test Example 3: effect on crop by application to foliage (Wagner pot, water depth 0.1-0.5 cm); conditions: Nineteenth Table; application to foliage; application herbicide amount 320 g/ha
Summary of the method: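 Scores (0–5) reflect herbicidal ratio three weeks after a foliar spray: 0 is 5% or less, 5 is 90% or more. Plants had grown 14 days in alluvial soil pots in a 25–30 °C greenhouse before treatment with water-diluted emulsion at a set g/ha.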

[2] = system: Beta vulgaris ssp. vulgaris; experiment: Test Example 4: effect on crop by application to foliage (diluvial soil, plastic box); conditions: for f: effect on crop, Beta vulgaris ssp. vulgaris: application to foliage, application herbicide amount 320 g/ha; for f (Beta vulgaris ssp. vulgaris) effect on crop grade: foliage application
Summary of the method: (§2)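 Scores run from 0 (herbicidal ratio ≤5%) to 5 (≥90%, almost fully withered) and were assessed three weeks after foliar spraying. Seedlings had been raised for 14 days at 25-30° C in sterilized diluvial soil before treatment, with the emulsion diluted in water to the stated g/ha dose.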

Brassica campestris L. = experiment: as above; conditions: for g: effect on crop, Brassica campestris L.: application to foliage, application herbicide amount 320 g/ha; for g (Brassica campestris L.) effect on crop grade: foliage application
Summary of the method: as §2

Glycine max = experiment: as above; conditions: for d: effect on crop, Glycine max: application to foliage, application herbicide amount 320 g/ha; for d (Glycine max) effect on crop grade: foliage application
Summary of the method: as §2

Triticum aestivum = experiment: as above; conditions: for e: effect on crop, Triticum aestivum: application to foliage, application herbicide amount 320 g/ha; for e (Triticum aestivum) effect on crop grade: foliage application
Summary of the method: as §2

Zea mays = experiment: as above; conditions: for c: effect on crop, Zea mays: application to foliage, application herbicide amount 320 g/ha; for c (Zea mays) effect on crop grade: foliage application
Summary of the method: as §2

[3] = system: directly sowed Oryza sativa; experiment: as above; conditions: for b: effect on crop, directly sowed Oryza sativa: application to foliage, application herbicide amount 320 g/ha; for b (directly sowed Oryza sativa) effect on crop grade: foliage application
Summary of the method: as §2

[4] = Application herbicide amount 320 g/ha, effect on crop
[5] = Application herbicide amount 320 g/ha

Compound	C (Monochoria vaginalis) herbicidal ratio grade (Monochoria vaginalis)	B (Scirpus juncoides) herbicidal ratio grade (Scirpus juncoides)	b (effect on crop grade) [1]	f: effect on crop, Beta vulgaris ssp. vulgaris [2]	g: effect on crop, Brassica campestris L. (Brassica campestris L.)	d: effect on crop, Glycine max (Glycine max)	e: effect on crop, Triticum aestivum (Triticum aestivum)	c: effect on crop, Zea mays (Zea mays)	b: effect on crop, directly sowed Oryza sativa [3]	f (Beta vulgaris ssp. vulgaris) effect on crop grade [2, 5]	g (Brassica campestris L.) effect on crop grade (Brassica campestris L.; [5])	d (Glycine max) effect on crop grade (Glycine max; [5])	e (Triticum aestivum) effect on crop grade (Triticum aestivum; [5])	c (Zea mays) effect on crop grade (Zea mays; [5])	b (directly sowed Oryza sativa) effect on crop grade [3, 5]	also measured
Cn1nnnc1NC(=O)c1ccc(C(F)(F)F)n2c(C3CCCC3)nnc12 [2-021]	4 (Herbicidal ratio of 70% or more and less than 90%)	4 (Herbicidal ratio of 70% or more and less than 90%)	5 (Herbicidal ratio of 90% or more (almost completely withered))	5 (Herbicidal ratio of 90% or more (almost completely withered))	4 (Herbicidal ratio of 70% or more and less than 90%)	4 (Herbicidal ratio of 70% or more and less than 90%)	3 (Herbicidal ratio of 40% or more and less than 70%)	0 (Herbicidal ratio of 5% or less (almost no effect))	4 (Herbicidal ratio of 70% or more and less than 90%)	–	–	–	–	–	–	–
CN(C)c1nnc2c(C(=O)Nc3nnco3)ccc(C(F)(F)F)n12 [1-103]	4 (Herbicidal ratio of 70% or more and less than 90%)	5 (Herbicidal ratio of 90% or more (almost completely withered))	4 (Herbicidal ratio of 70% or more and less than 90%)	–	–	–	–	–	–	–	–	–	–	–	–	f [2, 4]: 5 (Herbicidal ratio of 90% or more (almost completely withered)); g (Brassica campestris L.; [4]): 5 (Herbicidal ratio of 90% or more (almost completely withered)); c (Glycine max; [4]): 2 (Herbicidal ratio of 20% or more and less than 40%); e (Triticum aestivum; [4]): 3 (Herbicidal ratio of 40% or more and less than 70%); b (Zea mays; [4]): 1 (Herbicidal ratio of 5% or more and less than 20%); d [3, 4]: 4 (Herbicidal ratio of 70% or more and less than 90%)
Cn1nnnc1NC(=O)c1ccc(C(F)(F)F)n2c(C3CCOC3)nnc12 (stereo not drawn) [2-022]	4 (Herbicidal ratio of 70% or more and less than 90%)	5 (Herbicidal ratio of 90% or more (almost completely withered))	5 (Herbicidal ratio of 90% or more (almost completely withered))	5 (Herbicidal ratio of 90% or more (almost completely withered))	5 (Herbicidal ratio of 90% or more (almost completely withered))	5 (Herbicidal ratio of 90% or more (almost completely withered))	3 (Herbicidal ratio of 40% or more and less than 70%)	1 (Herbicidal ratio of 5% or more and less than 20%)	5 (Herbicidal ratio of 90% or more (almost completely withered))	–	–	–	–	–	–	–
COCCN(C)c1nnc2c(C(=O)Nc3nnco3)ccc(C(F)(F)F)n12 [1-121]	4 (Herbicidal ratio of 70% or more and less than 90%)	4 (Herbicidal ratio of 70% or more and less than 90%)	3 (Herbicidal ratio of 40% or more and less than 70%)	–	–	–	–	–	–	5 (Herbicidal ratio of 90% or more (almost completely withered))	5 (Herbicidal ratio of 90% or more (almost completely withered))	4 (Herbicidal ratio of 70% or more and less than 90%)	3 (Herbicidal ratio of 40% or more and less than 70%)	2 (Herbicidal ratio of 20% or more and less than 40%)	2 (Herbicidal ratio of 20% or more and less than 40%)	–
CCSc1nnc2c(C(=O)Nc3nnco3)ccc(C(F)(F)F)n12 [1-106]	4 (Herbicidal ratio of 70% or more and less than 90%)	5 (Herbicidal ratio of 90% or more (almost completely withered))	3 (Herbicidal ratio of 40% or more and less than 70%)	–	–	–	–	–	–	5 (Herbicidal ratio of 90% or more (almost completely withered))	4 (Herbicidal ratio of 70% or more and less than 90%)	3 (Herbicidal ratio of 40% or more and less than 70%)	3 (Herbicidal ratio of 40% or more and less than 70%)	1 (Herbicidal ratio of 5% or more and less than 20%)	3 (Herbicidal ratio of 40% or more and less than 70%)	–
Cn1nnnc1NC(=O)c1ccc(C(F)(F)F)n2c(Cl)nnc12 [2-008]	3 (Herbicidal ratio of 40% or more and less than 70%)	2 (Herbicidal ratio of 20% or more and less than 40%)	0 (Herbicidal ratio of 5% or less (almost no effect))	5 (Herbicidal ratio of 90% or more (almost completely withered))	3 (Herbicidal ratio of 40% or more and less than 70%)	3 (Herbicidal ratio of 40% or more and less than 70%)	2 (Herbicidal ratio of 20% or more and less than 40%)	0 (Herbicidal ratio of 5% or less (almost no effect))	1 (Herbicidal ratio of 5% or more and less than 20%)	–	–	–	–	–	–	–
CC(C)c1nnc2c(C(=O)N(C)c3nnnn3C)ccc(C(F)(F)F)n12 [2-023]	1 (Herbicidal ratio of 5% or more and less than 20%)	1 (Herbicidal ratio of 5% or more and less than 20%)	1 (Herbicidal ratio of 5% or more and less than 20%)	4 (Herbicidal ratio of 70% or more and less than 90%)	1 (Herbicidal ratio of 5% or more and less than 20%)	1 (Herbicidal ratio of 5% or more and less than 20%)	0 (Herbicidal ratio of 5% or less (almost no effect))	0 (Herbicidal ratio of 5% or less (almost no effect))	0 (Herbicidal ratio of 5% or less (almost no effect))	–	–	–	–	–	–	–
Cn1nnnc1NC(=O)c1ccc(C(F)(F)F)n2c(COCC(F)(F)F)nnc12 [2-015]	4 (Herbicidal ratio of 70% or more and less than 90%)	5 (Herbicidal ratio of 90% or more (almost completely withered))	4 (Herbicidal ratio of 70% or more and less than 90%)	4 (Herbicidal ratio of 70% or more and less than 90%)	3 (Herbicidal ratio of 40% or more and less than 70%)	2 (Herbicidal ratio of 20% or more and less than 40%)	2 (Herbicidal ratio of 20% or more and less than 40%)	2 (Herbicidal ratio of 20% or more and less than 40%)	4 (Herbicidal ratio of 70% or more and less than 90%)	–	–	–	–	–	–	–
Cc1nnc(NC(=O)c2ccc(C(F)(F)F)n3c(N4CCSCC4)nnc23)o1 [1-118]	0 (Herbicidal ratio of 5% or less (almost no effect))	3 (Herbicidal ratio of 40% or more and less than 70%)	3 (Herbicidal ratio of 40% or more and less than 70%)	–	–	–	–	–	–	5 (Herbicidal ratio of 90% or more (almost completely withered))	5 (Herbicidal ratio of 90% or more (almost completely withered))	4 (Herbicidal ratio of 70% or more and less than 90%)	1 (Herbicidal ratio of 5% or more and less than 20%)	0 (Herbicidal ratio of 5% or less (almost no effect))	4 (Herbicidal ratio of 70% or more and less than 90%)	–
